Here are results for 14 compounds from US7544667B2, “Hypocholesterolemic compounds” (Lipideon Biotechnology AG, priority 2003, dated 2009).

For the assay, the system named is rabbit brush border membrane vesicles (BBMV). Briefly: inhibition of cholesterol uptake in rabbit brush border membrane vesicles (BBMV). The format is biochemical. As to conditions: applied in donor SUV (9 mol %); scavenger receptor-mediated uptake of radiolabelled cholesterol ester from donor particles into BBMV bilayer. On the procedure: The compounds of the invention and ezetimibe (commercially obtained or prepared according to Wu, G. Z. et al., J. Org. Chem. 1999) together with the glucuronide (the metabolite of ezetimibe, prepared according to Vaccaro, W. D.; Davis, H. R. Bioorg. Med. Chem. Lett. 1998, 8, 313-318) as appropriate reference compounds were evaluated by well-established methods to determine their inhibition of cholesterol uptake in rabbit brush border membrane vesicles (BBMV) (Table 1). Briefly, the scavenger receptor-mediated uptake of radiolabelled cholesterol ester from the loaded donor particles into the BBMV bilayer was measured in the presence of various compounds of the invention and appropriate reference compounds (Hauser, H. et al., Biochemistry 1998, 37, 17843-17850; Werder, M. et al., Biochemistry 2001, 40, 11643-11650; Boffelli, D. et al., FEBS Lett. 1997, 411, 7-11.)
With `COC1OC(CS(=O)(=O)Oc2ccc([C@@H]3[C@@H](CC[C@H](O)c4ccc(F)cc4)C(=O)N3c3ccc(F)cc3)cc2)C(O)C(O)C1O` (some centres unmarked) [IXb], the “Inhibition in (%)” value amounted to 20 ± 5%.

As for `O=C(O)[C@H]1O[C@@H](Oc2ccc([C@@H]3[C@@H](CC[C@H](O)c4ccc(F)cc4)C(=O)N3c3ccc(F)cc3)cc2)[C@H](O)[C@@H](O)[C@@H]1O` [Glucuronide, reference compound], the “Inhibition in (%)” value was found to be 19 ± 4%.

As to `O=S(=O)(Oc1ccc([C@@H]2[C@@H](CC[C@H](O)c3ccc(F)cc3)CN2c2ccc(F)cc2)cc1)c1ccccc1` [XV], the “Inhibition in (%)” value was found to be 19 ± 3%.

As for `O=C1[C@H](CC[C@H](O)c2ccc(F)cc2)[C@@H](c2ccc(OS(=O)(=O)CC3OC(CO)C(OC4OC(CO)C(O)C(O)C4O)C(O)C3O)cc2)N1c1ccc(F)cc1` (some centres unmarked) [XVIII], the “Inhibition in (%)” value was 41 ± 4%.

Take `CS(=O)(=O)Oc1ccc([C@@H]2[C@@H](CC[C@H](O)c3ccc(F)cc3)C(=O)N2c2ccc(F)cc2)cc1` [VI]: the “Inhibition in (%)” value stood at 30 ± 4%.

On to `COC1OC(CS(=O)(=O)Oc2ccc([C@@H]3[C@@H](CC[C@H](O)c4ccc(F)cc4)CN3c3ccc(F)cc3)cc2)C(O)C(O)C1O` (some centres unmarked) [IX], for which the “Inhibition in (%)” value came to 27 ± 4%.

For `O=C(O)c1cc(S(=O)(=O)Oc2ccc([C@@H]3[C@@H](CC[C@H](O)c4ccc(F)cc4)C(=O)N3c3ccc(F)cc3)cc2)ccc1O` [XVI], the “Inhibition in (%)” value came to 21 ± 5%.

As for `O=C1[C@H](CC[C@H](O)c2ccc(F)cc2)[C@@H](c2ccc(OS(=O)(=O)CC3OC(CO)C(O)C(O)C3O)cc2)N1c1ccc(F)cc1` (some centres unmarked) [X], the “Inhibition in (%)” value is reported as 15 ± 3%.

Consider `O=C1[C@H](CC[C@H](O)c2ccc(F)cc2)[C@@H](c2ccc(OS(=O)(=O)c3ccccc3)cc2)N1c1ccc(F)cc1` [XIV], for which the “Inhibition in (%)” value was 26 ± 3%.

Regarding `CS(=O)(=O)Oc1ccc([C@@H]2[C@@H](CC[C@H](O)c3ccc(F)cc3)CN2c2ccc(F)cc2)cc1` [VII], the “Inhibition in (%)” value was found to be 22 ± 2%.

On to `O=C1O[C@H](CC[C@H](O)c2ccc(F)cc2)[C@@H](c2ccc(O)cc2)N1c1ccc(F)cc1` [XXI], for which the “Inhibition in (%)” value is 19 ± 2%.

For the compound `O=C1[C@H](CC[C@H](O)c2ccc(F)cc2)[C@@H](c2ccc(OCC3OC(CO)C(O)C(O)C3O)cc2)N1c1ccc(F)cc1` (some centres unmarked) [VIII], the “Inhibition in (%)” value was determined as 15 ± 3%.

`O=C1[C@H](CC[C@H](O)c2ccc(F)cc2)[C@@H](c2ccc(O)cc2)N1c1ccc(F)cc1` [Ezetimibe, reference compound]: the “Inhibition in (%)” value is 16 ± 4%.

Consider `O=C1[C@H](CC[C@H](O)c2ccc(F)cc2)[C@@H](c2ccc(OCC3OC(CO)C(OC4OC(CO)C(O)C(O)C4O)C(O)C3O)cc2)N1c1ccc(F)cc1` (some centres unmarked) [XVII], for which the “Inhibition in (%)” value came out at 28 ± 4%.
